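Step 1: Grow cells in 96-well plates. Step 2: Expose to compound for 48 hours at 5 concentrations. Step 3: Interpolate endpoints linearly; if unreached, use highest concentration. GI50 marks 50% less growth. Definition used: TGI = concentration required for complete inhibition of growth.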
Tests used:
Assay in all cases: DTP human tumour cell line panel, 48 h
NCI-H522 lung = system: NCI-H522 lung
SF-539 CNS = system: SF-539 CNS
EKVX NSCLC = system: EKVX NSCLC
SK-MEL-2 melanoma = system: SK-MEL-2 melanoma
TK-10 renal = system: TK-10 renal
OVCAR-8 ovarian = system: OVCAR-8 ovarian
SK-MEL-5 melanoma = system: SK-MEL-5 melanoma
KM12 colon = system: KM12 colon
A549 NSCLC = system: A549 NSCLC
UACC-257 melanoma = system: UACC-257 melanoma
PC-3 prostate = system: PC-3 prostate
SN12C renal = system: SN12C renal
MDA-MB-231 breast = system: MDA-MB-231 breast
HS 578T breast = system: HS 578T breast
MDA-MB-435 = system: MDA-MB-435
IGROV1 ovarian = system: IGROV1 ovarian
MOLT-4 leukemia = system: MOLT-4 leukemia
SF-295 CNS = system: SF-295 CNS
786-0 renal = system: 786-0 renal
NCI/ADR-RES ovarian = system: NCI/ADR-RES ovarian
K-562 leukemia = system: K-562 leukemia
UACC-62 melanoma = system: UACC-62 melanoma
CAKI-1 renal = system: CAKI-1 renal
T-47D breast = system: T-47D breast
UO-31 renal = system: UO-31 renal
LOX IMVI melanoma = system: LOX IMVI melanoma
DU-145 prostate = system: DU-145 prostate
U251 CNS = system: U251 CNS
OVCAR-3 ovarian = system: OVCAR-3 ovarian
HOP-62 NSCLC = system: HOP-62 NSCLC
OVCAR-5 ovarian = system: OVCAR-5 ovarian
NCI-H226 lung = system: NCI-H226 lung
SK-MEL-28 melanoma = system: SK-MEL-28 melanoma
HCC-2998 colon = system: HCC-2998 colon
ACHN renal = system: ACHN renal
MCF7 breast = system: MCF7 breast
COLO 205 colon = system: COLO 205 colon
HT29 colon = system: HT29 colon
NCI-H23 lung = system: NCI-H23 lung
HL-60(TB) leukemia = system: HL-60(TB) leukemia
SNB-19 CNS = system: SNB-19 CNS
SF-268 CNS = system: SF-268 CNS
RXF 393 renal = system: RXF 393 renal
NCI-H460 lung = system: NCI-H460 lung
HOP-92 NSCLC = system: HOP-92 NSCLC
MALME-3M melanoma = system: MALME-3M melanoma
OVCAR-4 ovarian = system: OVCAR-4 ovarian
HCT-15 colon = system: HCT-15 colon
M14 melanoma = system: M14 melanoma
CCRF-CEM leukemia = system: CCRF-CEM leukemia
BT-549 breast = system: BT-549 breast
HCT-116 colon = system: HCT-116 colon
SW-620 colon = system: SW-620 colon
SR leukemia = system: SR leukemia
RPMI-8226 leukemia = system: RPMI-8226 leukemia
SK-OV-3 ovarian = system: SK-OV-3 ovarian
A498 renal = system: A498 renal
SNB-75 CNS = system: SNB-75 CNS

COc1cc(/C=C2\C[C@H]3[C@@H]4CC=C5C[C@@H](O)CC[C@]5(C)[C@H]4CC[C@]3(C)[C@H]2O)ccc1OCCCn1ccnc1
GI50 (NCI-H522 lung): 22.3 µM | TGI (NCI-H522 lung): > 50 µM | GI50 (SF-539 CNS): 1.05 µM | TGI (SF-539 CNS): 2.09 µM | GI50 (EKVX NSCLC): 6.06 µM | TGI (EKVX NSCLC): > 50 µM | GI50 (SK-MEL-2 melanoma): 32.7 µM | TGI (SK-MEL-2 melanoma): > 50 µM | GI50 (TK-10 renal): 0.738 µM | TGI (TK-10 renal): 2.09 µM | GI50 (OVCAR-8 ovarian): 2.62 µM | TGI (OVCAR-8 ovarian): 16.1 µM | GI50 (SK-MEL-5 melanoma): 4.15 µM | TGI (SK-MEL-5 melanoma): 12.4 µM | GI50 (KM12 colon): 1.82 µM | TGI (KM12 colon): 7.2 µM | GI50 (A549 NSCLC): 1.18 µM | TGI (A549 NSCLC): 2.63 µM | GI50 (UACC-257 melanoma): 6.3 µM | TGI (UACC-257 melanoma): 15.4 µM | GI50 (PC-3 prostate): 1.45 µM | TGI (PC-3 prostate): 5.03 µM | GI50 (SN12C renal): 2.73 µM | TGI (SN12C renal): 13.2 µM | GI50 (MDA-MB-231 breast): 0.863 µM | TGI (MDA-MB-231 breast): 1.74 µM | GI50 (HS 578T breast): 1.18 µM | TGI (HS 578T breast): 4.24 µM | GI50 (MDA-MB-435): 3.52 µM | TGI (MDA-MB-435): 12.6 µM | GI50 (IGROV1 ovarian): 12.5 µM | TGI (IGROV1 ovarian): > 50 µM | GI50 (MOLT-4 leukemia): > 50 µM | TGI (MOLT-4 leukemia): > 50 µM | GI50 (SF-295 CNS): 1.55 µM | TGI (SF-295 CNS): 6.32 µM | GI50 (786-0 renal): 1.23 µM | TGI (786-0 renal): 3.09 µM | GI50 (NCI/ADR-RES ovarian): 13.6 µM | TGI (NCI/ADR-RES ovarian): > 50 µM | GI50 (K-562 leukemia): 2.69 µM | TGI (K-562 leukemia): > 50 µM | GI50 (UACC-62 melanoma): 1.59 µM | TGI (UACC-62 melanoma): 6.65 µM | GI50 (CAKI-1 renal): 1.81 µM | TGI (CAKI-1 renal): 7.86 µM | GI50 (T-47D breast): 17.7 µM | TGI (T-47D breast): > 50 µM | GI50 (UO-31 renal): 2.12 µM | TGI (UO-31 renal): > 50 µM | GI50 (LOX IMVI melanoma): 0.988 µM | TGI (LOX IMVI melanoma): 2.01 µM | GI50 (DU-145 prostate): 1.92 µM | TGI (DU-145 prostate): 7.45 µM | GI50 (U251 CNS): 0.923 µM | TGI (U251 CNS): 1.72 µM | GI50 (OVCAR-3 ovarian): 0.946 µM | TGI (OVCAR-3 ovarian): 2.9 µM | GI50 (HOP-62 NSCLC): 3.45 µM | TGI (HOP-62 NSCLC): 20 µM | GI50 (OVCAR-5 ovarian): 7.14 µM | TGI (OVCAR-5 ovarian): 23.3 µM | GI50 (NCI-H226 lung): 4.09 µM | TGI (NCI-H226 lung): 15.2 µM | GI50 (SK-MEL-28 melanoma): 10.2 µM | TGI (SK-MEL-28 melanoma): > 50 µM | GI50 (HCC-2998 colon): 8.22 µM | TGI (HCC-2998 colon): 16.1 µM | GI50 (ACHN renal): 1.28 µM | TGI (ACHN renal): 3.34 µM | GI50 (MCF7 breast): 2.63 µM | TGI (MCF7 breast): 27.7 µM | GI50 (COLO 205 colon): 8.74 µM | TGI (COLO 205 colon): > 50 µM | GI50 (HT29 colon): 2.68 µM | TGI (HT29 colon): > 50 µM | GI50 (NCI-H23 lung): 9.31 µM | TGI (NCI-H23 lung): 40.8 µM | GI50 (HL-60(TB) leukemia): 2.79 µM | TGI (HL-60(TB) leukemia): 15.9 µM | GI50 (SNB-19 CNS): 12.4 µM | TGI (SNB-19 CNS): > 50 µM | GI50 (SF-268 CNS): 3.82 µM | TGI (SF-268 CNS): 19.2 µM | GI50 (RXF 393 renal): 2.52 µM | TGI (RXF 393 renal): 43.4 µM | GI50 (NCI-H460 lung): 1.52 µM | TGI (NCI-H460 lung): 5.11 µM | GI50 (HOP-92 NSCLC): 4.44 µM | TGI (HOP-92 NSCLC): 12.5 µM

Cn1c(/C=C/[N+](=O)[O-])cc2ccccc21
GI50 (MALME-3M melanoma): 11.1 µM | TGI (MALME-3M melanoma): 25.9 µM | GI50 (NCI-H522 lung): 2.22 µM | TGI (NCI-H522 lung): 7.43 µM | GI50 (EKVX NSCLC): 15.3 µM | TGI (EKVX NSCLC): > 100 µM | GI50 (SK-MEL-2 melanoma): 15.3 µM | TGI (SK-MEL-2 melanoma): 68.3 µM | GI50 (TK-10 renal): 4.04 µM | TGI (TK-10 renal): 14.9 µM | GI50 (OVCAR-8 ovarian): 3.17 µM | TGI (OVCAR-8 ovarian): 31.7 µM | GI50 (SK-MEL-5 melanoma): 3.07 µM | TGI (SK-MEL-5 melanoma): 13.3 µM | GI50 (KM12 colon): 1.69 µM | TGI (KM12 colon): 3.15 µM | GI50 (A549 NSCLC): 2.68 µM | TGI (A549 NSCLC): 7.83 µM | GI50 (OVCAR-4 ovarian): 10.3 µM | TGI (OVCAR-4 ovarian): 92.1 µM | GI50 (UACC-257 melanoma): 2.11 µM | TGI (UACC-257 melanoma): 6.86 µM | GI50 (HCT-15 colon): 3.24 µM | TGI (HCT-15 colon): 11.2 µM | GI50 (PC-3 prostate): 6.75 µM | TGI (PC-3 prostate): 35.5 µM | GI50 (SN12C renal): 13.1 µM | TGI (SN12C renal): > 100 µM | GI50 (MDA-MB-231 breast): 5.49 µM | TGI (MDA-MB-231 breast): 47.9 µM | GI50 (MDA-MB-435): 1.69 µM | TGI (MDA-MB-435): 4.34 µM | GI50 (IGROV1 ovarian): 2.05 µM | TGI (IGROV1 ovarian): 5.44 µM | GI50 (MOLT-4 leukemia): 5.36 µM | TGI (MOLT-4 leukemia): 58 µM | GI50 (SF-295 CNS): 5.84 µM | TGI (SF-295 CNS): > 100 µM | GI50 (786-0 renal): 2.15 µM | TGI (786-0 renal): 4.08 µM | GI50 (NCI/ADR-RES ovarian): 6.45 µM | TGI (NCI/ADR-RES ovarian): 92.5 µM | GI50 (K-562 leukemia): 2.9 µM | TGI (K-562 leukemia): > 100 µM | GI50 (UACC-62 melanoma): 11.4 µM | TGI (UACC-62 melanoma): 31 µM | GI50 (M14 melanoma): 1.77 µM | TGI (M14 melanoma): 3.56 µM | GI50 (CCRF-CEM leukemia): 16.9 µM | TGI (CCRF-CEM leukemia): > 100 µM | GI50 (T-47D breast): 2.79 µM | TGI (T-47D breast): 8.61 µM | GI50 (UO-31 renal): 1.47 µM | TGI (UO-31 renal): 3.64 µM | GI50 (LOX IMVI melanoma): 1.67 µM | TGI (LOX IMVI melanoma): 3.44 µM | GI50 (BT-549 breast): 1.88 µM | TGI (BT-549 breast): 3.77 µM | GI50 (DU-145 prostate): 1.65 µM | TGI (DU-145 prostate): 3.21 µM | GI50 (HCT-116 colon): 1.04 µM | TGI (HCT-116 colon): 2.45 µM | GI50 (U251 CNS): 1.73 µM | TGI (U251 CNS): 3.75 µM | GI50 (OVCAR-3 ovarian): 1.66 µM | TGI (OVCAR-3 ovarian): 3.49 µM | GI50 (HOP-62 NSCLC): 8.39 µM | TGI (HOP-62 NSCLC): 27.6 µM | GI50 (OVCAR-5 ovarian): 21.2 µM | TGI (OVCAR-5 ovarian): 56.6 µM | GI50 (NCI-H226 lung): 4.23 µM | TGI (NCI-H226 lung): 21 µM | GI50 (SK-MEL-28 melanoma): 15.7 µM | TGI (SK-MEL-28 melanoma): 34.5 µM | GI50 (HCC-2998 colon): 1.84 µM | TGI (HCC-2998 colon): 3.36 µM | GI50 (SW-620 colon): 1.67 µM | TGI (SW-620 colon): 3.22 µM | GI50 (ACHN renal): 3.42 µM | TGI (ACHN renal): 13.2 µM | GI50 (SR leukemia): 2.16 µM | TGI (SR leukemia): 8.06 µM | GI50 (RPMI-8226 leukemia): 3.18 µM | TGI (RPMI-8226 leukemia): > 100 µM | GI50 (COLO 205 colon): 1.88 µM | TGI (COLO 205 colon): 3.69 µM | GI50 (HT29 colon): 1.68 µM | TGI (HT29 colon): 4.02 µM | GI50 (NCI-H23 lung): 2.73 µM | TGI (NCI-H23 lung): 17.1 µM | GI50 (HL-60(TB) leukemia): 13.1 µM | TGI (HL-60(TB) leukemia): 57.5 µM | GI50 (SNB-19 CNS): 11.1 µM | TGI (SNB-19 CNS): 28.8 µM | GI50 (SF-268 CNS): 11.7 µM | TGI (SF-268 CNS): 27.4 µM | GI50 (SK-OV-3 ovarian): 13.2 µM | TGI (SK-OV-3 ovarian): 26.3 µM | GI50 (RXF 393 renal): 1.66 µM | TGI (RXF 393 renal): 3.08 µM | GI50 (A498 renal): 2.19 µM | TGI (A498 renal): 9.27 µM | GI50 (SNB-75 CNS): 3.36 µM | TGI (SNB-75 CNS): 28.4 µM | GI50 (NCI-H460 lung): 3.77 µM | TGI (NCI-H460 lung): 20.9 µM

Reference: PubChem BioAssay (NCI)
